Measurements from patent US12461089B2, “Olfactory receptor involved in the perception of musk fragrance and the use thereof” (ChemoSensoryX Biosciences SA, priority 2017, dated 2025).
Where a chain is given by its changes, count along the chain named. pEC50: −log10 of the molar value. Read-outs that look alike come from different tables or passages of the source.

What was measured:
Type in all cases: cell-based
OR5A2_variant 1 = target: T1, OR5A2_variant 1 (Homo sapiens, UniProt Q8NGI9); assay: Luciferase reporter concentration-response analysis on OR5A2_variant 1; conditions: for EC50: concentration-response analysis, luciferase reporter, values given as negative (log) numbers, read-out: calculated EC50, OR5A2 (converted)
T1 construct: expressed in transfected cells; host or cells: HEK293T-RTP1A1/RTP2
T1 sequence (Q8NGI9 1-324): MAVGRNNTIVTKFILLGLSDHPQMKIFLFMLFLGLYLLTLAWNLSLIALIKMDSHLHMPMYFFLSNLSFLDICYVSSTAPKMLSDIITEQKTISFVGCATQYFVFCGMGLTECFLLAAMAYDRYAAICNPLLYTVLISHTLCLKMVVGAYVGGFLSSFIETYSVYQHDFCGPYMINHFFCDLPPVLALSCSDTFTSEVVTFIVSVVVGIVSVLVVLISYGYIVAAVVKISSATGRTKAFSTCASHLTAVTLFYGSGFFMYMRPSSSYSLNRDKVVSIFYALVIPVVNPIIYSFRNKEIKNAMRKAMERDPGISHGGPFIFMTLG
Description: (§1) HEK293T-RTP1A1/RTP2 cells were maintained in minimal essential medium (EMEM, Lonza) containing 10% fetal bovine serum (M10). These cells were generated by transfecting HEK293T with an expression vector containing the sequences of the chaperone proteins RTP1A1 and RTP2 and a resistance gene to puromycin, using Lipofectamine 2000.
(§2) Odorant molecules were diluted at a concentration of 1 mole/liter (M) into dimethyl sulfoxide (DMSO) to generate stock solutions.
(§3) For concentration-response analysis, serial dilutions of the tested molecules were prepared from stock solutions in EMEM plated into 96-well plates.
(§4) For the initial deorphanisation screening and dose-response analysis, a Luciferase-based gene reporter assay (Promega, Leiden, The Nederlands) was used. Briefly, cells were platted on Poly-D-lysine-coated 96-well and transfected with a plasmid containing the CRE-luciferase and a plasmid containing the olfactory receptor. Sixteen hours after transfection, the culture medium was replaced by serum-free EMEM containing the tested compounds at a determined concentration. After four hours of incubation at 37° C. degree, cells were lysed and processed for luminescence measurement. Luminescene emission was recorded. Results were expressed as luciferase activity (Relative […] Unit (RLU)) or as percentage of the response induced by 10 μM of the adenylate cyclase activator Forskolin. An empty plasmid is used as negative control.
(§5) 35 musk compounds from the four structurally different chemical groups previously described were tested in concentration-response analyses (Table 2). In each experiment, an empty vector was used as negative control (pEFIBRHO). […] Full results including the calculated EC50 are given in Table 2; “non active” represent negative experiments, no activation after testing.

OR11A1 = target: T2, OR11A1 (Homo sapiens, UniProt Q9GZK7); assay: Luciferase reporter concentration-response analysis on OR11A1; conditions: for EC50: concentration-response analysis, luciferase reporter, values given as negative (log) numbers, Non Active = no activation after testing, read-out: calculated EC50, OR11A1 (converted)
T2 construct: expressed in transfected cells; host or cells: HEK293T-RTP1A1/RTP2
T2 sequence (Q9GZK7 1-315): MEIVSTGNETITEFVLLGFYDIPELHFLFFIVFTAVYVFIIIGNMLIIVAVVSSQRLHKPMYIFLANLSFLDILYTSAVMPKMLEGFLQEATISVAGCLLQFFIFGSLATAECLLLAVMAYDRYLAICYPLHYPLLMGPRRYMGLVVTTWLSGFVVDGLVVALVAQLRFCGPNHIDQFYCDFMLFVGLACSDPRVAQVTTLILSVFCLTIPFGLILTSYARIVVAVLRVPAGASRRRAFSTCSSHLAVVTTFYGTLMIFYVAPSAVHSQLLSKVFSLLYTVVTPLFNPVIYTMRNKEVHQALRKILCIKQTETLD
Description: as §1, §2, §3, §4, §5
These compounds were tested in concentration-response analysis in luciferase assays, as described previously. In each experiment, an empty vector was used as negative control (pEFIBRHO).

OR5A2_variant 2 = target: T3, OR5A2_variant 2 (Homo sapiens, UniProt Q8NGI9, P172L); assay: Luciferase reporter concentration-response analysis on haplotype OR5A2_variant 2 (P172L); conditions: CRE-luciferase; empty vector pEFIBRHO as control
T3 construct: (P172L, OR5A2_variant 2); expressed in transfected cells; host or cells: HEK293T-RTP1A1/RTP2
T3 sequence (Q8NGI9 1-324 P172L): T1 sequence (Q8NGI9 1-324) with P172L
Description: as §1, §2, §3, §4
OR genes are highly variable, with many alleles resulting in differences in smell perception from person to person. These differences can be attributed to genetic variations like, for example, nucleotide polymorphisms. […] Amino acids alignment of the 2 haplotypes are represented in FIG. 4.
To test if the substitution could impact the musk sensitivity, luciferase assays were performed as described previously after transfection of both OR5A2 variants. Cells were treated with semi-logarithmic serial dilutions of musk compounds from the four structurally different groups described earlier. In each experiment, an empty vector was used as negative control (pEFIBRHO).

chimeric OR5A2_variant 1 = target: T4, chimeric OR5A2_variant 1 (Homo sapiens, UniProt Q8NGI9, F293L/H55R/I289L/M58T); assay: Luciferase reporter concentration-response analysis on chimeric OR5A2_variant 1; conditions: CRE-luciferase; empty vector pEFIBRHO as control
T4 construct: expressed in transfected cells; host or cells: HEK293T-RTP1A1/RTP2
T4 sequence (Q8NGI9 with tags, fused parts or gaps H55R/M58T/I289L/F293L): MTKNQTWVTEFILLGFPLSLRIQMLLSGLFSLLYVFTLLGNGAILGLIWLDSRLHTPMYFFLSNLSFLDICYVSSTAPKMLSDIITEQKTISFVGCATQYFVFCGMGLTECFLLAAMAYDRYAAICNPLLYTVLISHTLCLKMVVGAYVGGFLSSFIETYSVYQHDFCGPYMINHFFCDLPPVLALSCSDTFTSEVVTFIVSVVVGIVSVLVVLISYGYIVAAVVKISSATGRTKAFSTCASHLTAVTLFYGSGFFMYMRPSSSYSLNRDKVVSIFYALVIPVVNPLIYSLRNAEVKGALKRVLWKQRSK
Description: as §1, §2, §3, §4
(§6) To test if the amino acids substitution could impact the musk sensitivity, and specificity and to validate the Krautwurst's model, luciferase assays were performed as described previously after transfection of the chimeric OR5A2_variant 1. Cells were treated with semi-logarithmic serial dilutions of musk compounds from the four structurally different groups described earlier.
In each experiment, an empty vector was used as negative control (pEFIBRHO).

OR2A5 = target: T5, OR2A5 (Homo sapiens, UniProt Q96R48, A202S/A255T/I126V); assay: Luciferase reporter concentration-response analysis on OR2A5; conditions: CRE-luciferase
T5 construct: expressed in transfected cells; host or cells: HEK293T-RTP1A1/RTP2
T5 sequence (Q96R48 1-311 I126V/A202S/A255T): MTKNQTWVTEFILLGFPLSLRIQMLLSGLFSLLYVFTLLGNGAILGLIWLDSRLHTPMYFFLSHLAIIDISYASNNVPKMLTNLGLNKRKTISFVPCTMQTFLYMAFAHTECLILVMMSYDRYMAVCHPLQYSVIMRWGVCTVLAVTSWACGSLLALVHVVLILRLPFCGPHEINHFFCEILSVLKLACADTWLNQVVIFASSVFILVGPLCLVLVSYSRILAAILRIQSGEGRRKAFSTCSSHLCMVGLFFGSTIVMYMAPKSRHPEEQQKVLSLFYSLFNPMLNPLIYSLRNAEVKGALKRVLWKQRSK
Description: as §1, with “2000. The recombinant cell population, used in these experiments, was selected by adding 10 μg/ml of puromycin into the culture medium and subsequently subcloned (WO 2014/191047 A1).” for “2000.”
as §2, §3, §4
In 1998, Krautwurst and collaborators have provided a model system for the study of ligand specificity and structure-function relationships for olfactory receptors (Krautwurst et al., 1998 Cell 95, 917-26). […] Based on their publication, a chimeric OR5A2_variant 1 olfactory receptor was created containing the TM2-TM7 amino acid sequence of OR5A2_variant 1 flanked by the N-teminal and C-terminal sequence of the olfactory receptor OR2A5 (cf. SEQ ID NO: 12). This chimeric OR5A2_variant 1 receptor shared 86 percent identity with the native OR5A2_variant 1 receptor (FIG. 6A and SEQ ID NO: 10).
as §6

OR5AN1 = target: T6, OR5AN1 (Homo sapiens, UniProt Q8NGI8, E89G); assay: Luciferase reporter concentration-response analysis on OR5AN1; conditions: concentration-response analysis, luciferase reporter; values given as negative (log) numbers; Non Active = no activation after testing; read-out: calculated EC50, OR5AN1 (converted)
T6 construct: expressed in transfected cells; host or cells: HEK293T-RTP1A1/RTP2
T6 sequence (Q8NGI8 1-311 E89G): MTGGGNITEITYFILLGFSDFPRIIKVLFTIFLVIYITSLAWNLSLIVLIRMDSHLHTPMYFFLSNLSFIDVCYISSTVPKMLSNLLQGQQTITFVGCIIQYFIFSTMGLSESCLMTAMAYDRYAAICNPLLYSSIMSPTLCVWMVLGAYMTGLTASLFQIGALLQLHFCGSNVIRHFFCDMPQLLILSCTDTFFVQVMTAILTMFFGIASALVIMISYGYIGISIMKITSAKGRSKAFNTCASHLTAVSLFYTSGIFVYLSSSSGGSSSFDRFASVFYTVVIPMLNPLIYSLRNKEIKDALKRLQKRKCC
Description: as §1, with “2000. The recombinant cell population, used in these experiments, was selected by adding 10 μg/ml of puromycin into the culture medium and subsequently subcloned (WO 2014/191047 A1).” for “2000.”
as §2, §3, §4
In these analyses we also included ORs previously described as musk-specific receptors OR5AN1 (SEQ ID n° 7) (WO 2015/020158 A1, Shirasu et al. 2014 Neuron 81, 165-78, Sato-Akuhara N et al. 2016 J Neurosci. 36(16), 4482-91) and OR11A1 (SEQ ID n° 8) (WO 2016/201152 A1). […] Therefore, OR5A1 was included in the analyses. 35 musk compounds from the four structurally different chemical groups previously described were tested in concentration-response analyses (Table 2). In each experiment, an empty vector was used as negative control (pEFIBRHO). […] Full results including the calculated EC50 are given in Table 2; “non active” represent negative experiments, no activation after testing. […]

EC50 (OR5AN1) [µM]	Structure (SMILES)	EC50 (OR5A2_variant 1) [µM]	further results
	CC1CC(C)(C)c2ccc(C=O)cc2C1(C)C (centres unmarked) [Fixal]		pEC50 (OR5A2_variant 1): 4.99; pEC50 (OR11A1): 5.05
	CC1COCc2cc3c(cc21)C(C)(C)C(C)C3(C)C (centres unmarked) [Galaxolide ®]	1.05	
	CC1COCc2cc3c(cc21)C(C)(C)C(C)C3(C)C (centres unmarked) [Galaxolide®]		activation of OR5A2 (OR5A2_variant 1), concentration-response (OR5A2_variant 1; CRE-luciferase, semi-logarithmic serial dilutions, empty vector pEFIBRHO as control): shows dose response curves; activation of OR5A2_variant 2 (P172L), concentration-response (OR5A2_variant 2): not activated; activation of chimeric OR5A2_variant 1, concentration-response (chimeric OR5A2_variant 1): shows dose response curves; activation of OR2A5, concentration-response (OR2A5): but not the OR2A5
2.24	O=C1CCCCCC/C=C\CCCCCCC1 [Globanone (Animusk)]	3.98	
66.1	O=C1CCCCCCCCC/C=C/CCCO1 [Habanolide]		pEC50 (OR5A2_variant 1): 4.79
	Cc1c([N+](=O)[O-])cc2c(c1[N+](=O)[O-])C(C)(C)CC2(C)C [Moskene, 1,1,3,3,5-pentamethyl-4,6-dinitro-2H-indene]	1.86	
	c1ncc2c(n1)CCCCCCCCCC2 [Musk 77]	5.13	EC50 (OR11A1): 9.12 µM
75.9	O=C1CCCCCCCCCCC(=O)OCCO1 [Musk MC4]	38	
32.4	O=C1CCCCCCCCOCCCCCCO1 [Oxalide T]	8.32	
	CC(=O)c1cc2c(cc1C)C(C)(C)C(C)C2(C)C (centres unmarked) [Phantolide]	4.57	EC50 (OR11A1): 7.59 µM
	C/C(=C\C(C)C)C(C)OC(C)(C)COC(=O)C1CC1 (centres unmarked) [Sylkolide]		pEC50 (OR5A2_variant 1): 4.75

Structure (SMILES)	EC50 (OR5AN1) [µM]	EC50 (OR5A2_variant 1) [µM]	further results
COc1c(C(C)(C)C)cc([N+](=O)[O-])c(C)c1[N+](=O)[O-] [Musk Ambrette, 2,6-dinitro-3-methoxy-4-tert-butyltoluene]	692	8.71	
